Results from article PMC10035904, “Synthesis of novel sulphamethoxazole derivatives and exploration of their anticancer and antimicrobial properties” (PLOS ONE, 2023).
Converted amounts (≈) assume the structure as drawn.

How the values were obtained:
Format in all cases: cell-based
[1] = tested on: Escherichia coli ATCC 25922; assay: Serial dilution on solid agar, E. coli; settings: ATCC25922, solid Mueller-Hinton agar, 24 hours
Experimental: (§1) Antimicrobial activity of compound 16b on solid agar was tested using the same microbial cultures, and the same suspension preparation procedure, as described in above section. All procedures were done in aseptic conditions.
(§2) Mueller-Hinton agar was boiled and kept at to 37 °C during the whole procedure. Compound 16b solution was prepared in DMSO right before experiment. The Agar was mixed with compound solution at different ratios to make the final compound concentrations of 1 mM, 400 μM, 200 μM and 100 μM. Then 10 ml of prepared solution was poured into sterile Petri dishes (85 mm in diameter) and kept in aseptic conditions while the agar solidified. The agar with 0.5% of DMSO served as a negative control. With the help of loop standard microbial cultures by 0.1 ml were poured on the surface of prepared agar with investigative compound. Then Petri dishes were kept for 24 hours in thermostatic conditions.
(§3) The minimal dilution, i.e. the lowest concentration in μg/mL of the investigative and comparison compounds that inhibited visible growth of microorganisms was the minimal inhibitory concentration (MIC).

[2] = tested on: Enterococcus faecalis ATCC 29212; assay: Serial broth dilution in liquid medium, E. faecalis; settings: ATCC29212, Mueller-Hinton broth, 24 hours, 50% reduction of microbial growth, n = 3
Experimental: Antibacterial and antifungal susceptibility to the compound 16b was tested using a serial broth dilution technique in Mueller-Hinton broth II (BBL, Cockeysville, USA), as described elsewhere. All procedures were done in aseptic conditions. Standard bacterial and fungal cultures were used: Staphylococcus aureus ATCC 25923, Staphylococcus epidermidis ATCC 12228, Escherichia coli ATCC 25922, Enterococcus faecalis ATCC 29212, Klebsiella pneumoniae ATCC 33499, Pseudomonas aeruginosa ATCC 27853, Proteus mirabilis ATCC 12459, Bacillus cereus ATCC 8035, and Candida albicans ATCC 60193. Standard cultures of nonsporic bacteria S. aureus, S. epidermidis, E. coli, E. faecalis, K. pneumoniae, P. aeruginosa and P. mirabilis were cultivated for 20–24 hours at 37°C in Mueller-Hinton Agar (BBL, Cockeysville, USA). A bacterial suspension was prepared from cultivated bacterial cultures in physiological solution according to turbidity standard 0.5 McFarland. Standard culture of sporic bacteria B. cereus was cultivated for 7 days at 37°C in Mueller-Hinton II Agar. […] Then the absorbance was measured at 600 nm using a multi-detection microplate reader. […]

[3] = tested on: Enterococcus faecalis ATCC 29212; assay: Serial dilution on solid agar, E. faecalis; settings: ATCC29212, solid Mueller-Hinton agar, 24 hours
Experimental: as §1, §2, §3

[4] = tested on: Pseudomonas aeruginosa ATCC 27853; assay: Serial dilution on solid agar, P. aeruginosa; settings: ATCC27853, solid Mueller-Hinton agar, 24 hours
Experimental: as §1, §2, §3

[5] = tested on: Klebsiella pneumoniae ATCC 33499; assay: Serial dilution on solid agar, K. pneumoniae; settings: ATCC33499, solid Mueller-Hinton agar, 24 hours
Experimental: as §1, §2, §3

[6] = tested on: Proteus mirabilis ATCC 12459; assay: Serial dilution on solid agar, P. mirabilis; settings: ATCC12459, solid Mueller-Hinton agar, 24 hours
Experimental: as §1, §2, §3

[7] = tested on: Staphylococcus epidermidis ATCC 12228; assay: Serial dilution on solid agar, S. epidermidis; settings: ATCC12228, solid Mueller-Hinton agar, 24 hours
Experimental: as §1, §2, §3

**Q.** With `Cc1cc(NS(=O)(=O)c2ccc(NCCC(=O)NN=Cc3ccc([N+](=O)[O-])o3)cc2)no1` [Compound 16b, N-(5-methylisoxazol-3-yl)-4-((3-(2-((5-nitrofuran-2-yl)methylene)hydrazineyl)-3-oxopropyl)amino)-benzenesulfonamide] as the compound, how does the MIC [1] read?
**A.** 400 µM (≈ 185 µg/mL)

**Q.** What about the EC50 [2] of the same compound?
**A.** 90 ± 6 µM

**Q.** And the MIC [3]?
**A.** 1000 µM (≈ 462 µg/mL)

**Q.** And the MIC [4]?
**A.** > 1000 µM

**Q.** What about the MIC [5] of the same compound?
**A.** 1000 µM (≈ 462 µg/mL)

**Q.** What about the MIC [6] of the same compound?
**A.** 1000 µM (≈ 462 µg/mL)

**Q.** And the MIC [7]?
**A.** 100 µM (≈ 46.2 µg/mL)
